Measurements from PMC7478165, “Derivatisation of parthenolide to address chemoresistant chronic lymphocytic leukaemia” (MedChemComm, 2019).
Where two headings read alike, the source gives them in different places.

Legend:
MEC1 CLL cell line [1] = experiment: alamarBlue assay, in vitro antileukaemic activity against MEC1 CLL cell line; type: cell-based; details: for EC50: alamarBlue assay, library screen, read-out: EC50 ave.
Text: Defective p53-signalling increases genomic instability and drives tumour progression. A high frequency of p53 inactivation is found in relapsed, treatment-resistant, high risk CLL.[30] […] Owing to resource availability a subset of up to ten of these compounds was prioritised for further investigation. Compounds 2d, 2e, 2j, 2aa, 5a, 5d, 5e, 5f, 5ab and 6b were selected on the basis of reasons including ease of synthetic access, diversity across the chemical space probed and novelty. Those prepared under conditions (i)Scheme 1 (2d, 5a and 6b) were available on a scale and in a purity to directly permit follow-up studies, whereas compounds prepared under conditions (ii)Scheme 1 were prepared on a small scale so were resynthesised. These seven compounds (2e, 2j, 2aa, 5d, 5e, 5f and 5ab) were isolated on >30 mg scale in high purity and progressed to more following studies.
Following the identification of 5f as the most promising drug-like derivative of PTL from the aforementioned parallel/high-throughput screening, the anti-leukaemic activity of 5f was tested once more and compared directly with that of PTL (1) and DMAPT (2a), which serve as comparators and positive controls.
Amine 7 was successfully prepared as follows: 4-Piperidinecarboxylic acid was N-Boc protected to deliver 8 in 92% yield.[43] In order to confidently assign the NMR spectra of compound 8 J-MOD, HSQC and ^1H–^1H COSY were helpful, particularly in establishing that a broad resonance in the proton-decoupled ^13C NMR spectrum, centred on 42.8 ppm, corresponds to the ring-carbons bonded to nitrogen. The carboxylic acid of 8 was converted to the corresponding ethyl-3-keto-propanoate 9 in 24% yield. Conversion of 9 to the N-Boc protected congener 10, was achieved by treatment with acetamidine hydrochloride and potassium carbonate, furnishing 10 in 77% yield. Treatment with trifluoroacetic acid delivered desired compound 7 in 99% yield for the Boc-deprotection step (scale 200 mg, 17% over four linear steps). Thus, evidencing accessibility of amine 7 and with it in hand, it was timely to probe any activity arising from the amine alone. MEC1 sensitivity to 1, 5f and 7 was compared in parallel using the alamarBlue® assay (Fig. 6). […] A pre-peer-reviewed preprint of this article was deposited and may be viewed elsewhere.[44]

[2] = Stability in aqueous solution, pH 7.4; type: physicochemical; details: for half-life: pH 7.4, read-out: Stability pH 7.4 T1/2; for stability in aqueous solution: result in words
Experimental: Compounds 2d, 2e, 2f, 2g, 2j, 2aa, 5a, 5d, 5e, 5f, 5ab and 6b were subjected to in vitro DMPK testing. […] The other three (2d, 2j and 2aa) were not retained for further investigation due to poor stability (T1/2 at pH 7.4: 13, 107 and 76 min, Table 1, entries 1, 3 and 4 respectively). One obvious aspect contributing to observed stability is the propensity for PTL derivatives of this type to undergo a retro-amination (reverse-Michael-type mechanism), indeed this reverse reaction is often claimed as a pro-drug mode of action.[29a],[33] […] It is a reasonable assertion that activity observed for these unstable compounds could well be ascribed to free PTL generated rapidly in the assay.

[3] = Microsomal stability assay (mouse); details: for Mouse microsomal stability: mouse microsomes; for microsomal CLint: mouse, liver microsomes
[4] = Caco-2 permeability assay; type: in vitro ADME; details: human, Caco-2, pH 7.4
MEC1 CLL cell line [5] = experiment: cells; parameters: alamarBlue (resazurin reduction) viability assay in MEC1 CLL cells; details: Homo sapiens, MEC1, 24 h; read-out: alamarBlue EC50 (uM) average
Text: Defective p53-signalling increases genomic instability and drives tumour progression. A high frequency of p53 inactivation is found in relapsed, treatment-resistant, high risk CLL.[30] […] Owing to resource availability a subset of up to ten of these compounds was prioritised for further investigation. Compounds 2d, 2e, 2j, 2aa, 5a, 5d, 5e, 5f, 5ab and 6b were selected on the basis of reasons including ease of synthetic access, diversity across the chemical space probed and novelty. Those prepared under conditions (i)Scheme 1 (2d, 5a and 6b) were available on a scale and in a purity to directly permit follow-up studies, whereas compounds prepared under conditions (ii)Scheme 1 were prepared on a small scale so were resynthesised. These seven compounds (2e, 2j, 2aa, 5d, 5e, 5f and 5ab) were isolated on >30 mg scale in high purity and progressed to more following studies. Biological efforts at Sygnature Discovery (where differing to University of Birmingham) MEC1 cells were obtained from the American Type Culture Collection (Manassas, VA 20110 USA) and were routinely cultured in RPMI 1640 medium (Sigma-Aldrich) supplemented with 1% L-glutamine (Sigma-Aldrich), 1% Penicillin/Streptomycin (Sigma-Aldrich) and 10% FBS (Gibco). The MEC1 proliferation assay was conducted by performing a re-feed of the MEC1 cells 24 h prior to cell seeding. On the day of the assay, cells were seeded into a 384-well assay plate at a density of 12,500 cells/well in 25 μL of complete MEC1 medium. Compound treatment was performed on the day of cell seeding, with compounds prepared as duplicate compound response curves (final DMSO concentration of 0.6%). Post compound treatment, MEC1 assay plates were returned to a 37 °C/5% CO2 incubator for 24 h of incubation. Following compound treatment, cellular viability was determined by measuring reduction of alamarBlue® reagent (Invitrogen). alamarBlue® reagent (2.5 μL) was added to each assay well to give a 1:10 dilution of the neat stock and assay plates were incubated for 3 h at 37 °C/5% CO2. Reduction of alamarBlue® was determined using an Envision Xcite plate reader (Perkin Elmer) with an excitation wavelength of 560 nm set and an emission wavelength of 590 nm set. Cell viability was determined by normalising raw fluorescent data to a cell only high control and Parthenolide treated low control to provide percentage viability readout. Data was plotted and EC50 values extracted and reported EC50s represent an average of at least two independent assays.

[6] = MEC1 cell line pEC50 minus calculated log P
[7] = Homo sapiens, MEC1, MEC1 cell line

| SMILES | EC50 (MEC1 CLL cell line [1]; MEC1 cell line) | half-life [2] | EC50 (MEC1 CLL cell line [1]; [7]) | EC50 (MEC1 CLL cell line [5]) | further results |
| --- | --- | --- | --- | --- | --- |
| CCn1cc(CN(C[C@@H]2C(=O)O[C@H]3[C@H]2CC/C(C)=C/CC[C@@]2(C)O[C@H]32)C(C)C)cn1 [C00002] | 5.6 µM | > 2 h | – | – | LipE pEC50–clog P (MEC1 CLL cell line [1]; [6]): 1.61; Mouse microsomal stability ([3]; first of two columns headed A to B): 828; Mouse microsomal stability ([3]; second of two columns headed A to B): 2 |
| CCN(CCO)C[C@@H]1C(=O)O[C@H]2[C@H]1CC/C(C)=C/CC[C@@]1(C)O[C@H]21 [C00001] | 4.7 µM | – | – | – | LipE pEC50–clog P (MEC1 CLL cell line [1]; [6]): 3.31; Stability pH 7.4 T1/2 ([2]; pH 7.4): 13 min |
| C/C1=C\CC[C@@]2(C)O[C@@H]2[C@H]2OC(=O)[C@@H](CN[C@@H](Cc3ccccc3)C(=O)O)[C@@H]2CC1 [Compound 6b] | – | – | < 15 µM | – | stability in aqueous solution [2]: greater than two hours; efflux ratio [4]: 2.7; microsomal CLint [3]: 9 µL/min/mg |
| C/C1=C\CC[C@@]2(C)O[C@@H]2[C@H]2OC(=O)[C@@H](CN(CC3CC3)C(C)C)[C@@H]2CC1 [Compound 2f] | – | – | < 15 µM | 12.2 µM | – |
| COc1ccc(CN(C)C[C@@H]2C(=O)O[C@H]3[C@H]2CC/C(C)=C/CC[C@@]2(C)O[C@H]32)cc1OC [Compound 2j] | < 15 µM | 1.78 h | – | 9.7 µM | – |
| CCN(CCO)C[C@@H]1C(=O)O[C@H]2[C@H]1CC/C(C)=C/CC[C@@]1(C)O[C@H]21 [Compound 2d] | < 15 µM | 0.217 h | – | – | – |
| C/C1=C\CC[C@@]2(C)O[C@@H]2[C@H]2OC(=O)[C@@H](CN3CCC(O)(c4ccccc4)CC3)[C@@H]2CC1 [C00007] | 6 µM | > 2 h | – | – | LipE pEC50–clog P (MEC1 CLL cell line [1]): 1.90 |
| C/C1=C\CC[C@@]2(C)O[C@@H]2[C@H]2OC(=O)[C@@H](CN3CCC(OCc4cccnc4)CC3)[C@@H]2CC1 [Compound 5ab] | – | – | < 15 µM | – | stability in aqueous solution [2]: greater than two hours; microsomal CLint [3]: > 100 µL/min/mg |
| C/C1=C\CC[C@@]2(C)O[C@@H]2[C@H]2OC(=O)[C@@H](CN(CCO)C3CCCCC3)[C@@H]2CC1 [Compound 2g] | – | – | < 15 µM | 10 µM | – |
| C/C1=C\CC[C@@]2(C)O[C@@H]2[C@H]2OC(=O)[C@@H](CN(C)CCc3ccccc3)[C@@H]2CC1 [Compound 2aa] | < 15 µM | 1.27 h | – | – | – |
